Legend:
Leishmania major [1] = assay: Antileishmanial activity against […] promastigote form of Leishmania major assessed as inhibition of parasite growth by alamar-blue reduction assay; type: functional, organism-based
Leishmania major [2] = assay: Antileishmanial activity against intracellular amastigotes form of Leishmania major assessed as inhibition of parasite growth by alamar-blue reduction assay; type: functional, organism-based
Leishmania infantum = assay: Antileishmanial activity against Leishmania infantum MHOM/MA(BE)/67 infected in mouse peritoneal macrophage cell incubated for 5 days by giemsa staining based analysis; type: functional, organism-based; details: MHOM/MA(BE)/67, Peritoneal macrophage cell, 120 h
Leishmania major [3] = assay: Antileishmanial activity against Leishmania major promastigotes assessed as parasite survival preincubated with 20 uM folinic acid for 1 hrs followed by compound addition and measured after 48 hrs by hemocytometric analysis relative to control; type: functional
[4] = Hepatotoxicity in male mouse assessed as ALP level at 50 mg/kg, ip measured after 48 hrs (reference value: 115.44 +/- 8.03 U/L); type: toxicity, organism-based; details: in vivo
[5] = Selectivity index, ratio of CC50 for cytotoxicity against African green monkey Vero cells assessed as reduction in cell viability to IC50 for antileishmanial activity against Leishmania major amastigotes assessed as inhibition of parasite growth; type: toxicity, cell-based; details: read-out: Ratio CC50/IC50
[6] = Cytotoxicity against African green monkey Vero cells assessed as reduction in cell survival incubated for 72 hrs by crystal violet staining based analysis; type: toxicity; details: chlorocebus sabaeus
[7] = Renal toxicity in male mouse assessed as serum urea level at 50 mg/kg, ip measured after 48 hrs (reference value: 36.51 +/- 1.51 mg/dl); type: organism-based; details: in vivo
[8] = Renal toxicity in male mouse assessed as serum creatinine level at 50 mg/kg, ip measured after 48 hrs (reference value: 0.66 +/- 0.02 mg/dl); type: organism-based; details: in vivo
Leishmania major [9] = assay: Antileishmanial activity against Leishmania major promastigotes assessed as parasite survival preincubated with 100 uM folic acid for 1 hrs followed by compound addition and measured after 48 hrs by hemocytometric analysis relative to control; type: functional
[10] = Toxicity in male mouse assessed as CK-MB level at 50 mg/kg, ip measured after 48 hrs (reference value: 41.27 +/- […]); type: organism-based; details: in vivo
Leishmania major [11] = assay: Antileishmanial activity against Leishmania major promastigotes assessed as parasite survival measured after 72 hrs by hemocytometric analysis relative to control; type: functional
[12] = Hepatotoxicity in male mouse assessed as AST level at 50 mg/kg, ip measured after 48 hrs (reference value: 47.72 +/- 4.77 U/L); type: toxicity, organism-based; details: in vivo
[13] = Renal toxicity in male mouse assessed as serum urea level at 200 mg/kg, ip measured after 48 hrs (reference value: 36.51 +/- 1.51 mg/dl); type: organism-based; details: in vivo
[14] = Hepatotoxicity in male mouse assessed as effect on ALP level at 200 mg/kg, ip measured after 48 hrs (reference value: 115.44 +/- 8.03 U/L); type: toxicity, organism-based; details: in vivo
[15] = Hepatotoxicity in male mouse assessed as AST level at 200 mg/kg, ip measured after 48 hrs (reference value: 47.72 +/- 4.77 U/L); type: toxicity, organism-based; details: in vivo
[16] = Toxicity in male mouse assessed as CK-MB level at 200 mg/kg, ip measured after 48 hrs (reference value: 41.27 +/- […]); type: organism-based; details: in vivo
Leishmania major [17] = assay: Antileishmanial activity against Leishmania major promastigotes assessed as parasite survival preincubated with 100 uM folinic acid for 1 hrs followed by compound addition and measured after 48 hrs by hemocytometric analysis relative to control; type: functional
Leishmania major [18] = assay: Antileishmanial activity against Leishmania major promastigotes assessed as parasite survival preincubated with 20 uM folic acid for 1 hrs followed by compound addition and measured after 48 hrs by hemocytometric analysis relative to control; type: functional
[19] = Hepatotoxicity in male mouse assessed as ALT level at 50 mg/kg, ip measured after 48 hrs (reference value: 28.23 +/- 6.57 U/L); type: toxicity, organism-based; details: in vivo
[20] = Hepatotoxicity in male mouse assessed as ALT level at 200 mg/kg, ip measured after 48 hrs (reference value: 28.23 +/- 6.57 U/L); type: toxicity, organism-based; details: in vivo
[21] = Renal toxicity in male mouse assessed as serum creatinine level at 200 mg/kg, ip measured after 48 hrs (reference value: 0.66 +/- 0.02 mg/dl); type: organism-based; details: in vivo
Leishmania major [22] = assay: Antileishmanial activity against Leishmania major promastigotes assessed as parasite survival at 100 uM measured after 72 hrs by hemocytometric analysis relative to control

SMILES	IC50 (Leishmania major [1]) [µM]	IC50 (Leishmania major [2]) [µM]	also measured
CC(C)CN1C(=O)C(n2nc(-c3c(O)c4ccccc4oc3=O)cc2-c2ccc(Br)cc2)c2cc(Br)ccc21 (stereo unspecified)	6.93	8.22	
CCCN1C(=O)C(n2nc(-c3c(O)c4ccccc4oc3=O)cc2-c2ccc(Br)cc2)c2cc(Cl)ccc21 (stereo unspecified)	4.73	6.82	
CC(C)CN1C(=O)C(n2nc(-c3c(O)c4ccccc4oc3=O)cc2-c2ccc(F)cc2)c2cc(Cl)ccc21 (stereo unspecified)	5.71	7.28	
CC(C)CN1C(=O)C(n2nc(-c3c(O)c4ccccc4oc3=O)cc2-c2ccc(F)cc2)c2cc(Br)ccc21 (stereo unspecified)	6.22	6.87	
O=C(Nc1cc(-c2ccccc2F)n[nH]1)Oc1ccccc1			IC50 (Leishmania infantum): 20 µM
O=C1Nc2ccc([N+](=O)[O-])cc2C1n1nc(-c2c(O)c3ccccc3oc2=O)cc1-c1ccc(Cl)cc1 (stereo unspecified)	1.43	1.44	Survival (Leishmania major [3]): 78%; Activity [4]: 106.35 U/L; selectivity ratio [5]: 42.3; CC50 at 72 h [6]: 60.7 µM; Activity [7]: 34.17 mg/dL; Activity [8]: 0.62 mg/dL; Survival (Leishmania major [9]): 73%; Activity [10]: 44.71 U/L; Survival (Leishmania major [11]): 21%; Activity [12]: 45.98 U/L; Activity [13]: 38.32 mg/dL; Activity [14]: 113.63 U/L; Activity [15]: 48.89 U/L; Activity [16]: 44.71 U/L; Survival (Leishmania major [17]): 85%; Survival (Leishmania major [18]): 68%; Activity [19]: 29.39 U/L; Activity [20]: 32.59 U/L; Activity [21]: 0.61 mg/dL
O=C1Nc2ccc([N+](=O)[O-])cc2C1n1nc(-c2c(O)c3ccccc3oc2=O)cc1-c1ccc(Br)cc1 (stereo unspecified)	2.47	3.88	
CN1C(=O)C(n2nc(-c3c(O)c4ccccc4oc3=O)cc2-c2ccc(F)cc2)c2cc(Cl)ccc21 (stereo unspecified)	4.05	6.82	
O=C1C(n2nc(-c3c(O)c4ccccc4oc3=O)cc2-c2ccc(Cl)cc2)c2ccccc2N1CCc1ccccc1 (stereo unspecified)	5.92	8.47	
O=C1C(n2nc(-c3c(O)c4ccccc4oc3=O)cc2-c2ccc(Br)cc2)c2ccccc2N1CCc1ccccc1 (stereo unspecified)	7.21	9.44	
CCCN1C(=O)C(n2nc(-c3c(O)c4ccccc4oc3=O)cc2-c2ccc(F)cc2)c2cc(Cl)ccc21 (stereo unspecified)	4.64	5.82	
CC(C)CN1C(=O)C(n2nc(-c3c(O)c4ccccc4oc3=O)cc2-c2ccc(Br)cc2)c2cc(Cl)ccc21 (stereo unspecified)	5.07	6.64	
CCCN1C(=O)C(n2nc(-c3c(O)c4ccccc4oc3=O)cc2-c2ccc(Cl)cc2)c2cc(Cl)ccc21 (stereo unspecified)	5.6	7.29	
COc1ccc(-c2cc(NC(=O)N3CCC(Cc4ccccc4)CC3)[nH]n2)cc1			IC50 (Leishmania infantum): 19 µM
CC(C)CN1C(=O)C(n2nc(-c3c(O)c4ccccc4oc3=O)cc2-c2ccc(Cl)cc2)c2cc(Cl)ccc21 (stereo unspecified)	6.59	8.25	
CC(C)CN1C(=O)C(n2nc(-c3c(O)c4ccccc4oc3=O)cc2-c2ccc(Cl)cc2)c2cc(Br)ccc21 (stereo unspecified)	5.99	7.54	
COc1cc(Cc2cnc(N)nc2N)cc(OC)c1OC [TRIMETHOPRIM]			Survival (Leishmania major [9]): 99%; survival at 100 µM (Leishmania major [22]): 72%

Source: ChEMBL document CHEMBL6109080, “Synthesis and mechanistic insights of Coumarinyl-Indolinone hybrids as potent inhibitors of Leishmania major” (Eur J Med Chem, 2025)
